Measurements published in patent publication US7956053B2, “Inhibitors of tyrosine kinases” (Novartis AG, priority 2002, dated 2011).

Assays:
[1] = biological target: T1, c-Abl (Homo sapiens, UniProt P00519); test: Test for activity against c-Abl protein tyrosine kinase (filter binding assay); assay type: biochemical
T1 construct: The His-tagged kinase domain of c-Abl is cloned and expressed in the baculovirus/Sf9 system; His; made in house; host or cells: baculovirus/Sf9
T1 sequence (P00519 242-493 limits assumed): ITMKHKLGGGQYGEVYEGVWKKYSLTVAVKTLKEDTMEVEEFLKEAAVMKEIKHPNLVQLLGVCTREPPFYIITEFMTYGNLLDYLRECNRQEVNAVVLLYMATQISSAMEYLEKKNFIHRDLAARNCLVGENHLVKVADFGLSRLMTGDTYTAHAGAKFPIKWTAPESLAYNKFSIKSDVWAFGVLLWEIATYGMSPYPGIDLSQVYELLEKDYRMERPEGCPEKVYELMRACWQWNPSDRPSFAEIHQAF
Method: Test for activity against c-Abl protein tyrosine kinase. The test is conducted as a filter binding assay as follows: The His-tagged kinase domain of c-Abl is cloned and expressed in the baculovirus/Sf9 system as described by Bhat et al., J Biol. Chem. 272, 16170-5 (1997). A protein of 37 kD (c-Abl kinase) is purified by a two-step procedure over a Cobalt metal chelate column followed by an anion exchange column with a yield of 1-2 mg/L of Sf9 cells. The purity of the c-Abl kinase is >90% as judged by SDS-PAGE after Coomassie blue staining. The assay contains: c-Abl kinase (50 ng), 20 mM Tris.HCl, pH 7.5, 10 mM MgCl2, 10 μM Na3VO4, 1 mM DTT and 0.06 μCi/assay [γ^33 P]-ATP (5 μM ATP) using 30 μg/mL poly-Ala,Glu,Lys,Tyr-6:2:5:1 (Poly-AEKY, Sigma P1152) in the presence of 1% DMSO, total volume of 30 μL. Reactions are terminated by adding 10 μL of 250 mM EDTA, and 30 μL of the reaction mixture is transferred onto Immobilon-PVDF membrane (Millipore, Bedford, Mass., USA) previously soaked for 5 min with methanol, rinsed with water, then soaked for 5 min with 0.5% H3PO4 and mounted on vacuum manifold with disconnected vacuum source. After spotting all samples, vacuum is connected and each well rinsed with 200 μL 0.5% H3PO4. Membranes are removed and washed on a shaker with 0.5% H3PO4 (4 times) and once with ethanol. Membranes are counted after drying at ambient temperature, mounting in Packard TopCount 96-well frame, and addition of 10 μL/well of Microscint™ (Packard).
(§1) Enzymatic (c-Abl, KDR, Flt3) in vitro inhibition data are presented as % inhibition at 10 μM. The measurements are made as described above in the general description.

[2] = biological target: KDR (Homo sapiens, UniProt P35968); test: Enzymatic KDR in vitro inhibition; assay type: biochemical
Sequence of KDR (P35968 20-1356): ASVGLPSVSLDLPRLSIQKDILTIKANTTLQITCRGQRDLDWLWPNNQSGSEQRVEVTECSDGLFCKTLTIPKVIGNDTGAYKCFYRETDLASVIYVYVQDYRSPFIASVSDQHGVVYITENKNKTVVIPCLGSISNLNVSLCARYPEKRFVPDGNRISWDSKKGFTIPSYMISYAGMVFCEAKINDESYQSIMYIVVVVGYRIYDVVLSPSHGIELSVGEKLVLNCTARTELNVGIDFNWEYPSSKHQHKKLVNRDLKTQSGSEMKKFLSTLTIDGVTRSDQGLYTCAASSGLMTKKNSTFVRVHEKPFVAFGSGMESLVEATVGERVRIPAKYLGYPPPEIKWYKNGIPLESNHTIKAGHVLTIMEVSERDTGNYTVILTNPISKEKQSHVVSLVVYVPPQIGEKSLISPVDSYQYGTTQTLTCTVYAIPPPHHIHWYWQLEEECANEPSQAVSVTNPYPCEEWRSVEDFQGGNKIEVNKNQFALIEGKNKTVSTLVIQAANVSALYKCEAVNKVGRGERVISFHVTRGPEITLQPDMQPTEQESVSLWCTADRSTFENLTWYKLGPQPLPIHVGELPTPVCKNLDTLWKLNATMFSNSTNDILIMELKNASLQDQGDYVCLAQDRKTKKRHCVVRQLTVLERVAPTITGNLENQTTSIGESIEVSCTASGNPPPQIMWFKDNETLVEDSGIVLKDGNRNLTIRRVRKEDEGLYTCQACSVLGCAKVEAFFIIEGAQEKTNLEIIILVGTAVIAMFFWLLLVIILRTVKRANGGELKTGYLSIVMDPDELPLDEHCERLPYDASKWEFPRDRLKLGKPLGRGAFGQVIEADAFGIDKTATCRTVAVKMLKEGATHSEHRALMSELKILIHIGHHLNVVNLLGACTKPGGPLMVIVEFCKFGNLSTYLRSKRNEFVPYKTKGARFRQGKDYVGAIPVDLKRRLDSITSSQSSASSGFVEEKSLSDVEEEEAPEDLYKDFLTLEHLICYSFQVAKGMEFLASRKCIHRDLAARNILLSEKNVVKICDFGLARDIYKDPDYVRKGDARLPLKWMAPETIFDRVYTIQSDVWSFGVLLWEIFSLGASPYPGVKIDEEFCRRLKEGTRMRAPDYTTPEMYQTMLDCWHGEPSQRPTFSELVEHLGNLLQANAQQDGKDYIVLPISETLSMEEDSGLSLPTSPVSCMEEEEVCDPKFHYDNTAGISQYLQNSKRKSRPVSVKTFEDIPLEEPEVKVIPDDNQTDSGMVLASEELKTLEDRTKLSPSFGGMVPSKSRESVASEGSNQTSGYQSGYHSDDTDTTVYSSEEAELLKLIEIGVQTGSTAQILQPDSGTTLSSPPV
Method: Test for activity against VEGF-receptor tyrosine kinase. The test is conducted using Flt-1 VEGF-receptor tyrosine kinase. The detailed procedure is as follows: 30 μL kinase solution (10 ng of the kinase domain of Flt-1, Shibuya et al., Oncogene 5, 519-24 [1990]) in 20 mM Tris.HCl pH 7.5, 3 mM manganese dichloride (MnCl2), 3 mM magnesium chloride (MgCl2), 10 μM sodium vanadate, 0.25 mg/mL polyethylenglycol (PEG) 20000, 1 mM dithiothreitol and 3 μg/μL poly(Glu,Tyr) 4:1 (Sigma, Buchs, Switzerland), 8 μM [^33P]-ATP (0.2 μCi), 1% DMSO, and 0 to 100 μM of the compound to be tested are incubated together for 10 minutes at room temperature. The reaction is then terminated by the addition of 10 μL 0.25 M ethylenediaminetetraacetate (EDTA) pH 7. Using a multichannel dispenser (LAB SYSTEMS, USA), an aliquot of 20 μL is applied to a PVDF (=polyvinyl difluoride) Immobilon P membrane (Millipore, Bedford, USA), through a Gibco-BRL microtiter filter manifold and connected to a vacuum. Following complete elimination of the liquid, the membrane is washed 4 times successively in a bath containing 0.5% phosphoric acid (H3PO4) and once with ethanol, incubated for 10 minutes each time while shaking, then mounted in a Hewlett Packard TopCount Manifold and the radioactivity measured after the addition of 10 μL Microscint® (β-scintillation counter liquid). IC50-values are determined by linear regression analysis of the percentages for the inhibition of each compound in at least four concentrations (as a rule 0.01, 0.1, 1.0 and 10 μmol).
as §1

| Compound | inhibition at 10 µM [1] | inhibition at 10 µM [2] |
| --- | --- | --- |
| Cc1ccc(C(=O)NCc2ccc(S(C)(=O)=O)cc2)cc1Nc1nccc(-c2cccnc2)n1 [Example 24, 4-Methyl-N-[4-(methylsulfonyl)benzyl]-3-[[4-(3-pyridinyl)-2-pyrimidinyl]amino]benzamide] | 80% | 70% |
| Cc1ccc(C(=O)NCc2ccc(N(C)C)cc2)cc1Nc1nccc(-c2cccnc2)n1 [Example 25, N-[[4-(Dimethylamino)phenyl]methyl]-4-methyl-3-[[4-(3-pyridinyl)-2-pyrimidinyl]amino]benzamide] | 44% | 73% |
| Cc1ccc(C(=O)NCC(N)=O)cc1Nc1nccc(-c2cccnc2)n1 [Example 26, N-(2-Amino-2-oxoethyl)-4-methyl-3-[[4-(3-pyridinyl)-2-pyrimidinyl]amino]benzamide] | 55% | 56% |
| COC(=O)CNC(=O)c1ccc(C)c(Nc2nccc(-c3cccnc3)n2)c1 [Example 27, N-[4-Methyl-3-[[4-(3-pyridinyl)-2-pyrimidinyl]amino]benzoyl]glycine methyl ester] | 54% | 51% |
| COC(=O)CCNC(=O)c1ccc(C)c(Nc2nccc(-c3cccnc3)n2)c1 [Example 28, N-[4-Methyl-3-[[4-(3-pyridinyl)-2-pyrimidinyl]amino]benzoyl]beta-alanine methyl ester] | 73% | 61% |
| Cc1ccc(C(=O)NCCCO)cc1Nc1nccc(-c2cccnc2)n1 [Example 30, N-(3-Hydroxypropyl)-4-methyl-3-[[4-(3-pyridinyl)-2-pyrimidinyl]amino]benzamide] | 57% | 37% |
| CCN(CC)C(=O)c1ccc(C)c(Nc2nccc(-c3cccnc3)n2)c1 [Example 31, N,N-Diethyl-4-methyl-3-[[4-(3-pyridinyl)-2-pyrimidinyl]amino]benzamide] | 68% | 83% |
| Cc1ccc(C(=O)N[C@@H](Cc2ccccc2)C(=O)OC(C)(C)C)cc1Nc1nccc(-c2cccnc2)n1 [Example 32, N-[4-Methyl-3-[[4-(3-pyridinyl)-2-pyrimidinyl]amino]benzoyl]-(L)-phenylalanine 1,1-dimethylethyl ester] | 90% | 37% |
| Cc1ccc(C(=O)N[C@H](C)C(=O)OC(C)(C)C)cc1Nc1nccc(-c2cccnc2)n1 [Example 33, N-[4-Methyl-3-[[4-(3-pyridinyl)-2-pyrimidinyl]amino]benzoyl]-(D)-alanine 1,1-dimethylethyl ester] | 97% | 51% |
| Cc1ccc(C(=O)N2CCC(NC(=O)c3ccccc3)CC2)cc1Nc1nccc(-c2cccnc2)n1 [Example 34, N-[1-[4-Methyl-3-[[4-(3-pyridinyl)-2-pyrimidinyl]amino]benzoyl]-4-piperidinyl]benzamide] | 73% | 89% |
| Cc1ccc(C(=O)N2CCOCC2)cc1Nc1nccc(-c2cccnc2)n1 [Example 35, 4-[4-Methyl-3-[[4-(3-pyridinyl)-2-pyrimidinyl]amino]benzoyl]-morpholine] | 27% | 47% |
| COc1ccc(N2CCN(C(=O)c3ccc(C)c(Nc4nccc(-c5cccnc5)n4)c3)CC2)cc1 [Example 36, 1-(4-Methoxyphenyl)-4-[4-methyl-3-[[4-(3-pyridinyl)-2-pyrimidinyl]amino]-benzoyl]piperazine] | 57% | 77% |
| Cc1ccc(C(=O)N2CCN(c3ccncc3)CC2)cc1Nc1nccc(-c2cccnc2)n1 [Example 37, 1-[4-Methyl-3-[[4-(3-pyridinyl)-2-pyrimidinyl]amino]benzoyl]-4-(4-pyridinyl)-piperazine] | 28% | 82% |
| Cc1ccc(C(=O)N2CCN(c3cnccn3)CC2)cc1Nc1nccc(-c2cccnc2)n1 [Example 38, 1-[4-Methyl-3-[[4-(3-pyridinyl)-2-pyrimidinyl]amino]benzoyl]-4-(pyrazinyl)-piperazine] | 74% | 91% |
| Cc1ccc(C(=O)N2CCN(Cc3ccccc3)CC2)cc1Nc1nccc(-c2cccnc2)n1 [Example 39, 1-[4-Methyl-3-[[4-(3-pyridinyl)-2-pyrimidinyl]amino]benzoyl]-4-(phenylmethyl)-piperazine] | 64% | 74% |
| Cc1ccc(C(=O)N2CCN(C3CCCC3)CC2)cc1Nc1nccc(-c2cccnc2)n1 [Example 40, 1-Cyclopentyl-4-[4-methyl-3-[[4-(3-pyridinyl)-2-pyrimidinyl]amino]benzoyl]piperazine] | 65% | 78% |
| Cc1ccc(C(=O)N2CCN(CC(=O)N3CCOCC3)CC2)cc1Nc1nccc(-c2cccnc2)n1 [Example 41, 4-{{4-[4-Methyl-3-[[4-(3-pyridinyl)-2-pyrimidinyl]amino]benzoyl]-1-piperazinyl}acetyl}morpholine] | 13% | 52% |
| Cc1ccc(C(=O)N2CCN(CC(=O)N3CCCC3)CC2)cc1Nc1nccc(-c2cccnc2)n1 [Example 42, 1-[4-Methyl-3-[[4-(3-pyridinyl)-2-pyrimidinyl]amino]benzoyl]-4-[2-oxo-2-(1-pyrrolidinyl)ethyl]piperazine] | 32% | 56% |
| CCOC(=O)N1CCN(C(=O)c2ccc(C)c(Nc3nccc(-c4cccnc4)n3)c2)CC1 [Example 43, 4-[4-Methyl-3-[[4-(3-pyridinyl)-2-pyrimidinyl]amino]benzoyl]-1-piperazinecarboxylic acid ethyl ester] | 37% | 63% |
| Cc1ccc(C(=O)N2CCc3ccccc3C2)cc1Nc1nccc(-c2cccnc2)n1 [Example 44, 2-[4-Methyl-3-[[4-(3-pyridinyl)-2-pyrimidinyl]amino]benzoyl]-1,2,3,4-tetrahydro-isoquinoline] | 75% | 97% |
| COCCN(CCOC)C(=O)c1ccc(C)c(Nc2nccc(-c3cccnc3)n2)c1 [Example 45, N,N-bis(2-Methoxyethyl)-4-methyl-3-[[4-(3-pyridinyl)-2-pyrimidinyl]amino]benzamide] | 34% | 61% |
| Cc1ccc(C(=O)N2CCC(N3CCCCC3)CC2)cc1Nc1nccc(-c2cccnc2)n1 [Example 46, 1′-[4-Methyl-3-[[4-(3-pyridinyl)-2-pyrimidinyl]amino]benzoyl]-1,4′-bipiperidine] | 1% | 43% |
| CCOC(=O)CN(Cc1ccccc1)C(=O)c1ccc(C)c(Nc2nccc(-c3cccnc3)n2)c1 [Example 47, N-[4-Methyl-3-[[4-(3-pyridinyl)-2-pyrimidinyl]amino]benzoyl]-N-(phenylmethyl)-glycine ethyl ester] | 39% | 74% |
| Cc1ccc(C(=O)Nc2cccc(Cl)c2)cc1Nc1nccc(-c2cccnc2)n1 [Example 48, N-(3-Chlorophenyl)-4-methyl-3-[[4-(3-pyridinyl)-2-pyrimidinyl]amino]benzamide] | 90% | 50% |
